From patent publication US11584725B2, “Pyrazinoic acid conjugates and hybrid conjugates” (Augusta University Research Institute, Inc., priority 2018, dated 2023) come the findings set out here.

Molecules are shown by their SMILES. ≈ marks a conversion by molar mass, not a printed value. Where “and” joins values, the source holds several entries; their conditions need not be identical. Identical values can stand only once. Like-named read-outs stand apart in the source and are kept apart here.

Format in all cases: cell-based
One assay concerns Mycobacterium marinum. Put plainly: Anti-mycobacterial MIC. Conditions: read-out: Minimum inhibitory concentration (MIC), observed.
In a further assay the test system is Mycobacterium fortuitum. Put plainly: Anti-mycobacterial MIC. Conditions: for MIC: Mycolicibacterium fortuitum.
The test system of a further assay is Enterococcus faecalis. Put plainly: Antibacterial MIC, aerobic bacteria, standard technique. Conditions: read-out: Minimum inhibitory concentration (MIC). From the text: (§1) Antibacterial properties were investigated for the synthesized compounds against a variety of Gram-positive (Staphylococcus aureus, Enterococcus faecalis) and Gram-negative (Klebsiella pneumonia, Proteus vulgaris, Pseudomonas aeruginosa) bacteria utilizing the standard technique.

In the next assay the test system is Klebsiella pneumonia. The description is as above. To be noted: Klebsiella pneumoniae, read-out: Minimum inhibitory concentration (MIC).
From the text: as §1

For another assay, the system named is Proteus vulgaris. The assay is described as above. Conditions: read-out: Minimum inhibitory concentration (MIC).
From the text: as §1

In a further assay the test system is Mycobacterium bovis. Put plainly: microbe, parasite or virus in culture. To be noted: for MIC: Mycobacterium tuberculosis variant bovis, read-out: Minimum inhibitory concentration (MIC); for MIC lower than that of the standard reference (INH): Mycobacterium bovis, MIC vs INH.
The next assay relates to Staphylococcus aureus. Put plainly: Antibacterial MIC, aerobic bacteria, standard technique. To be noted: read-out: Minimum inhibitory concentration (MIC).
From the text: as §1

[1] abbreviates: read-out: Minimum inhibitory concentration (MIC), observed.
[2] abbreviates: read-out: Minimum inhibitory concentration (MIC).

Turning to `CC(C)[C@H](NC(=O)c1cnccn1)C(=O)NNC(=O)c1ccncc1` [PZA-Val-INH], the MIC in the assay with Mycobacterium marinum came out at 58.4 mM (≈ 20 mg/mL); in the assay on Mycobacterium fortuitum (setting [1]), 58.4 mM.
`CC(C)[C@H](NC(=O)c1cnccn1)C(=O)NNC(=O)c1ccncc1` [drawing 36]: the MIC with Enterococcus faecalis turned out to be 0.00035 mM.
Consider `CC(C)C[C@H](NC(=O)c1cnccn1)C(=O)O` [drawing 46], for which the MIC in the assay with Mycobacterium fortuitum (setting [2]) came out at 20 mg/mL.
As for `CCC(C)C(NC(=O)c1cnccn1)C(=O)NNC(=O)c1ccncc1` (stereo not shown) [drawing 37], the MIC in the assay on Enterococcus faecalis is 0.03 µg/mL and 0.08 µM; in the assay on Klebsiella pneumonia, 0.008 mg/mL (≈ 22.4 µM); in the assay on Proteus vulgaris, 0.06 µg/mL (≈ 0.168 µM).
For `NNC(=O)c1ccncc1` [drawing 45], the MIC in the assay with Mycobacterium fortuitum (setting [2]) turned out to be 20 mg/mL.
Regarding `CC(C)[C@H](NC(=O)c1cnccn1)C(=O)O`, in the assay on Mycobacterium fortuitum (setting [2]), the MIC was above 20 mg/mL.
`NNC(=O)c1ccncc1` [INH, isoniazide, reference compound]: the MIC with Mycobacterium marinum worked out at 72.9 mM (≈ 10 mg/mL).
In the case of `O=C(N[C@@H](Cc1ccccc1)C(=O)O)c1cnccn1`, in the assay with Mycobacterium fortuitum (setting [2]), the MIC was above 20 mg/mL.
For the molecule `NC(=O)c1cnccn1` [PZA, Pyrazinamide, reference compound], the MIC in the assay on Mycobacterium marinum worked out at 81.2 mM (≈ 10 mg/mL); with Mycobacterium fortuitum (setting [1]), 81.2 mM.
On to `CC(C)C[C@H](NC(=O)c1cnccn1)C(=O)NNC(=O)c1ccncc1` [drawing 53], for which the MIC with Mycobacterium fortuitum (setting [2]) stood at 20 mg/mL.
`CSCC[C@H](NC(=O)c1cnccn1)C(=O)O`: in the assay on Mycobacterium fortuitum (setting [2]), the MIC was above 20 mg/mL.
Regarding `CCC(C)C(NC(=O)c1cnccn1)C(=O)O` (stereo not shown) [drawing 48], the MIC in the assay on Mycobacterium fortuitum (setting [2]) and with Mycobacterium bovis was above 20 mg/mL throughout.
On to `CCC(C)C(NC(=O)c1cnccn1)C(=O)NNC(=O)c1ccncc1` (stereo not shown) [PZA-Ile-INH], for which the MIC came out at 56.1 mM (≈ 20 mg/mL) in the assay with Mycobacterium marinum and 56.1 mM with Mycobacterium fortuitum (setting [1]).
Turning to `O=C(NNC(=O)c1cnccn1)c1ccncc1` [drawing 60], the MIC with Mycobacterium fortuitum (setting [2]) stood at 10 mg/mL.
Take `CC(C)C[C@H](NC(=O)c1cnccn1)C(=O)O` [PZA-Leu-OH]: the MIC in the assay with Mycobacterium marinum is 84.3 mM (≈ 20 mg/mL); in the assay with Mycobacterium fortuitum (setting [1]) it was 84.3 mM.
With `CCC(C)C(NC(=O)c1cnccn1)C(=O)NNC(=O)c1ccncc1` (stereo not shown) [drawing 55], the MIC was 20 mg/mL in the assay with Mycobacterium fortuitum (setting [2]) and above 20 mg/mL with Mycobacterium bovis.
For `CSCC[C@H](NC(=O)c1cnccn1)C(=O)NNC(=O)c1ccncc1` [PZA-Met-INH], the MIC came to 26.7 mM (≈ 10 mg/mL) in the assay with Mycobacterium marinum and 53.4 mM with Mycobacterium fortuitum (setting [1]).
For `CSCC[C@H](NC(=O)c1cnccn1)C(=O)NNC(=O)c1ccncc1` [drawing 56], the MIC with Mycobacterium fortuitum (setting [2]) was 20 mg/mL.
Regarding `O=C(NNC(=O)C(Cc1ccccc1)NC(=O)c1cnccn1)c1ccncc1` (stereo not shown), the MIC in the assay on Mycobacterium fortuitum (setting [2]) was 10 mg/mL.
`O=C(NNC(=O)C(Cc1ccccc1)NC(=O)c1cnccn1)c1ccncc1` (racemic) [PZA-DL-Phe-INH]: the “Potency relative to the standard reference (INH)” value in the assay with Mycobacterium fortuitum (MIC vs INH) is “about 5.6 folds”.
With `O=C(NNC(=O)[C@H](Cc1c[nH]c2ccccc12)NC(=O)c1cnccn1)c1ccncc1` [drawing 59], the MIC in the assay with Mycobacterium fortuitum (setting [2]) was 20 mg/mL.
Regarding `NC(=O)c1cnccn1` [drawing 44], in the assay on Mycobacterium fortuitum (setting [2]), the MIC came to 10 mg/mL.
The same measure, in the same setting: to `O=C(NNC(=O)[C@H](Cc1ccccc1)NC(=O)c1cnccn1)c1ccncc1` [drawing 57] belongs 20 mg/mL.
As to `O=C(NC(Cc1ccccc1)C(=O)O)c1cnccn1` (stereo not shown), the MIC with Mycobacterium fortuitum (setting [2]) is above 20 mg/mL.
Take `O=C(NNC(=O)c1ccncc1)c1ccncc1` [Iso-INH]: the MIC in the assay on Mycobacterium marinum came to 82.6 mM (≈ 20 mg/mL); in the assay on Mycobacterium fortuitum (setting [1]), 82.6 mM. Besides, the “MIC lower than that of the standard reference (INH)” value in the assay with Mycobacterium bovis is “about 1.8 folds”.
For `O=C(NNC(=O)c1cnccn1)c1ccncc1` [PZA-INH], the MIC with Mycobacterium marinum was determined as 41.1 mM (≈ 10 mg/mL); in the assay on Mycobacterium fortuitum (setting [1]), 41.1 mM. For the same molecule, the “MIC lower than that of the standard reference (INH)” value in the assay on Mycobacterium bovis is “about 1.8 folds”.
`O=C(NNC(=O)[C@H](Cc1ccccc1)NC(=O)c1cnccn1)c1ccncc1` [PZA-Phe-INH]: the MIC with Mycobacterium marinum worked out at 51.2 mM (≈ 20 mg/mL); with Mycobacterium fortuitum (setting [1]), 51.2 mM.
On to `CC(C)[C@H](NC(=O)c1cnccn1)C(=O)NNC(=O)c1ccncc1` [drawing 54], for which the MIC with Mycobacterium fortuitum (setting [2]) turned out to be 20 mg/mL.
As to `CCC(C)C(NC(=O)c1cnccn1)C(=O)O` (stereo not shown) [drawing 30], the MIC was found to be 0.03 µg/mL in the assay with Enterococcus faecalis, 0.008 mg/mL (≈ 33.7 µM) with Klebsiella pneumonia and 0.06 µg/mL (≈ 0.253 µM) with Proteus vulgaris.
Turning to `O=C(N[C@@H](Cc1c[nH]c2ccccc12)C(=O)O)c1cnccn1`, the MIC with Mycobacterium fortuitum (setting [2]) was above 20 mg/mL.
Turning to `O=C(NNC(=O)[C@H](Cc1c[nH]c2ccccc12)NC(=O)c1cnccn1)c1ccncc1` [PZA-Trp-INH], the MIC was found to be 46.6 mM (≈ 20 mg/mL) in the assay with Mycobacterium marinum and 46.6 mM in the assay with Mycobacterium fortuitum (setting [1]).
`O=C(NNC(=O)[C@H](Cc1c[nH]c2ccccc12)NC(=O)c1cnccn1)c1ccncc1` [drawing 41]: the MIC in the assay on Staphylococcus aureus was 3.73 mM (≈ 1.6 mg/mL).
Consider `CC(C)C[C@H](NC(=O)c1cnccn1)C(=O)NNC(=O)c1ccncc1` [PZA-Leu-INH], for which the MIC was found to be 56.1 mM (≈ 20 mg/mL) with Mycobacterium marinum and 56.1 mM in the assay on Mycobacterium fortuitum (setting [1]).
Take `O=C(NNC(=O)c1ccncc1)c1ccncc1` [drawing 61]: the MIC in the assay on Mycobacterium fortuitum (setting [2]) amounted to 20 mg/mL.
